Results reported in PubChem BioAssay (NCI).
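Each compound was tested at five concentrations against cells in 96-well plates for 48 hours. GI50: concentration for 50% inhibition of growth. TGI marks complete inhibition of growth.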

Experiments:
Assay in all cases: NCI tumour cell line growth inhibition, 48 h
[1] = system: RPMI-8226 leukemia
[2] = system: A498 renal
[3] = system: ACHN renal
[4] = system: MDA-MB-435
[5] = system: HS 578T breast
[6] = system: SK-OV-3 ovarian
[7] = system: OVCAR-8 ovarian
[8] = system: SNB-19 CNS

| Compound | GI50 [1] | TGI [1] | GI50 [2] | TGI [2] | GI50 [3] | GI50 [4] | GI50 [5] | GI50 [6] | GI50 [7] | GI50 [8] | TGI [3] [µM] | TGI [4] [µM] | TGI [5] [µM] | TGI [6] [µM] | TGI [7] [µM] | TGI [8] [µM] |
| --- | --- | --- | --- | --- | --- | --- | --- | --- | --- | --- | --- | --- | --- | --- | --- | --- |
| C=CCN1CC2CON(C(=O)C(OC)(c3ccccc3)C(F)(F)F)C2C1C(C)C (stereo unspecified) | 9.82 µg/mL | 41.7 µg/mL | 23.5 µg/mL | 92 µg/mL | 38.1 µg/mL | 41.8 µg/mL | 37.4 µg/mL | 40.2 µg/mL | 57.7 µg/mL | 54.5 µg/mL |  |  |  |  |  |  |
| COc1ccc(/C=C(/c2ccccc2)[N+](=O)[O-])cc1 | 0.486 µM | 3.01 µM | 1.01 µM | 2.24 µM | 1.55 µM | 1.3 µM | 2.4 µM | 2.59 µM | 2.08 µM | 1.65 µM | 2.9 | 2.69 | 7.7 | 6.91 | 6.3 | 3.17 |
| CC1C(=O)OC2CC[N+]3([O-])CC=C(COC(=O)C(C)(O)C1(C)O)C23 (stereo unspecified) |  | > 100 µM |  | > 100 µM |  |  |  |  |  |  | > 100 | > 100 | > 100 | > 100 | > 100 | > 100 |
| COc1ccc2c3c(Nc4ccc(/C(C)=N/O)cc4)[nH]c4ccccc4c-3c(N=O)c2c1 | 2.52 µM | 5.14 µM | 12.9 µM | 27.2 µM | 0.568 µM | 2.77 µM | 7.04 µM |  | 3.55 µM | 22.9 µM | 2.54 | 11.9 | 37 |  | 20.2 | 51.9 |
| Cc1ccc(Nc2nnc(-c3ccc4c(c3)OCO4)o2)c(C)c1 |  | > 100 µM |  | > 100 µM |  |  |  |  |  |  | > 100 | > 100 | > 100 | > 100 | > 100 | > 100 |
| Nc1ccccc1SC1CC(=O)N(c2ccc(Cl)c(Cl)c2)C1=O (stereo unspecified) | 10.6 µM | > 100 µM | 4.88 µM | 37.2 µM | 19.4 µM | 26.1 µM | 12.5 µM | 17.6 µM | 20 µM | 31.6 µM | 74.9 | > 100 | 49.5 | 54 | 77.8 | > 100 |
| O=C1CSC(c2ccc(-c3nc4ccccc4s3)cc2)=N1 | 23.2 µM | 52.6 µM |  |  | 55.6 µM | 7.54 µM | 20.2 µM | 53.2 µM | 11.1 µM | 72.7 µM | > 100 | 24.8 | 59.7 | > 100 | > 100 | > 100 |
| Cc1ccc(S(=O)(=O)NC(=O)NC2=NC(C)(C)N(c3ccc(Cl)c(Cl)c3)C(N)=N2)cc1 |  |  |  | > 100 µM |  |  |  |  |  |  | > 100 |  | > 100 | > 100 | > 100 | > 100 |
| Cn1c(=O)c2c(ncn2CC(=O)Nc2ccc(-c3ccccc3)nn2)n(C)c1=O | > 100 µM | > 100 µM | 54.1 µM | > 100 µM | > 100 µM | > 100 µM | > 100 µM | > 100 µM | > 100 µM | > 100 µM | > 100 | > 100 | > 100 | > 100 | > 100 | > 100 |
| CCN(CC)c1cc2oc3cc(N)cc(=N)c-3nc2cc1C | 1.03 µM | 23.7 µM | 16.3 µM | 74.7 µM | 1.69 µM |  | 2.18 µM | 22.2 µM | 2.77 µM | 5.46 µM | > 100 |  | 7.25 | > 100 | > 100 | 32 |
| CC/C=C/C/C=C/C/C=C/C/C=C/C/C=C/C/C=C/CCC(=O)Nc1ccn([C@@H]2O[C@H](CO)[C@@H](O)C2(F)F)c(=O)n1 | 0.245 µM | 39 µM | 0.0566 µM | 44.4 µM | < 0.0132 µM | 0.2 µM | 46.4 µM | 0.14 µM | 0.0345 µM | 0.0278 µM | 14.6 | 17.5 | > 76.9 | > 52.2 | 9.55 | 26.6 |
| O=C(NCc1ccc(S(=O)(=O)c2cc(F)cc(F)c2)cc1)c1ccc2nccn2c1 |  | > 100 µM | > 28.4 µM | > 86.8 µM | 21.1 µM | 0.0508 µM | 20.5 µM | 17.1 µM | < 0.01 µM | 2.56 µM | > 100 | > 100 | 80.1 | 60.6 | > 100 | > 100 |
| O=C(O)C12CC3(C(=O)O)CC(C(=O)O)(CC(C(=O)O)(C1)C3=O)C2=O |  | > 100 µM |  | > 100 µM |  |  |  |  |  |  | > 100 | > 100 | > 100 | > 100 | > 100 | > 100 |
| CCN(CC)CCNc1ccc2ncn3c4cc(OC)c(OC)c(=O)c4c(O)c1c23 |  | 20.2 µM |  | 29.5 µM |  |  |  |  |  |  | 20.5 | 26.9 | 29.1 | 28.8 | 27.9 | 22.6 |
| O=C(OCc1ccc2c(Cl)cc(Cl)c(O)c2n1)N1CCN(C(=O)c2cc3cc(F)ccc3[nH]2)CC1 | 0.48 µM | > 100 µM | 0.504 µM | 5.48 µM | 0.611 µM | 0.358 µM | 1.13 µM | 3.6 µM | 0.551 µM | 4.13 µM | > 100 | 2.18 | > 100 | > 100 | > 100 | > 100 |
| O/C(=C\c1nc2ccccc2nc1NC12CC3CC(CC(C3)C1)C2)c1ccc(Br)cc1 |  | > 10 µM |  | > 10 µM |  |  |  |  |  |  | > 10 | > 10 | > 10 | > 10 | > 10 | > 10 |
| NC(=S)N/N=C/c1cc(-c2cccc(N)c2)ccn1 | 0.446 µM | 28.7 µM | 1.61 µM | 19.1 µM | 1.06 µM | 3.2 µM | 0.585 µM | 3.29 µM | 1.66 µM | 4.24 µM | 16.1 | > 100 | > 57.4 | > 93.8 | > 67.9 | > 100 |
| CCC(=O)Nc1ccc(N=NN(C)C)cc1 |  |  |  | > 100 µM |  |  |  |  |  |  | > 100 | > 100 | > 100 | > 100 | > 100 | > 100 |
| Nc1ccc2nc3n(c2c1)C(=O)c1ccccc1-3 |  | > 100 µM |  |  |  |  |  |  |  |  | > 100 |  |  | > 100 | > 100 | > 100 |
